Calls of active or inactive are those of the source. The calls are words filed in the database; no cut-off is given here.
Tests used:
Cholinesterase [1] = target: T1, Cholinesterase (Equus caballus, UniProt P81908)
Description: Inhibition of equine serum BChE using butyrylthiocholine iodide as substrate preincubated for 10 mins followed by substrate addition by Ellman's method

Liver carboxylesterase [2] = target: T2, Liver carboxylesterase (Sus scrofa, UniProt Q29550); test: in vitro; conditions: pig, probe 4-nitrophenol acetate
T2 sequence (Q29550 whole entry): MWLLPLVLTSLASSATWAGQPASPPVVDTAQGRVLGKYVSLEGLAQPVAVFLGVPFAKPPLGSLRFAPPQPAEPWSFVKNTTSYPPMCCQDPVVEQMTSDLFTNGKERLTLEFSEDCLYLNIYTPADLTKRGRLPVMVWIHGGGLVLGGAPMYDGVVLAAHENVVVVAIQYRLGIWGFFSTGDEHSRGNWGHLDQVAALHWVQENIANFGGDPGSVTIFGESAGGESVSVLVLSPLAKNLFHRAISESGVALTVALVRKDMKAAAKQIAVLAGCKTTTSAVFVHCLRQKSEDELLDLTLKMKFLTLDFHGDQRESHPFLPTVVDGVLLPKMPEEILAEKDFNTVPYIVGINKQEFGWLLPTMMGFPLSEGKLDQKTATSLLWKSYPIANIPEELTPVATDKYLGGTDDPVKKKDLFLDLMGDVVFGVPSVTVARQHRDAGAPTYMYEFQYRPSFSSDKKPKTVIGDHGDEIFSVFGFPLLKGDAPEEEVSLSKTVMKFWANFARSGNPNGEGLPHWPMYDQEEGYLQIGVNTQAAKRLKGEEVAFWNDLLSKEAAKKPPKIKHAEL
Description: Inhibition of pig liver carboxylesterase at 20 uM using 4-nitrophenol acetate as substrate by spectrophotometric analysis

Liver carboxylesterase [3] = target: T2, Liver carboxylesterase
Description: Inhibition of pig liver carboxylesterase using 4-nitrophenol acetate as substrate by spectrophotometric analysis

Acetylcholinesterase [4] = target: T3, Acetylcholinesterase (Homo sapiens, UniProt P22303)
Description: Inhibition of human erythrocyte AChE using acetylthiocholine iodide as substrate preincubated for 10 mins followed by substrate addition by Ellman's method

Cholinesterase [5] = target: T1, Cholinesterase; remark: listed apart in the source
Description: Competitive inhibition of equine serum BChE using butyrylthiocholine iodide as substrate preincubated for 10 mins followed by substrate addition by Lineweaver-Burk double reciprocal kinetic plot analysis

[6] = target: Cholinesterase (Equus caballus) (UniProt P81908); test: Non-competitive inhibition of equine serum BChE using butyrylthiocholine iodide as substrate preincubated for 10 mins followed by substrate addition by Lineweaver-Burk double reciprocal kinetic plot analysis
Acetylcholinesterase [7] = target: T3, Acetylcholinesterase; remark: listed apart in the source
Description: Competitive inhibition of human serum AChE using acetylthiocholine iodide as substrate preincubated for 10 mins followed by Lineweaver-Burk double reciprocal kinetic plot analysis

Acetylcholinesterase [8] = target: T3, Acetylcholinesterase; test: Non-competitive inhibition of human […] AChE using acetylthiocholine iodide as substrate preincubated for 10 mins followed by substrate addition by Lineweaver-Burk double reciprocal kinetic plot analysis
Acetylcholinesterase [9] = target: T3, Acetylcholinesterase; test: Inhibition of human erythrocyte AChE at 20 uM using acetylthiocholine iodide as substrate preincubated for 10 mins followed by substrate addition Ellman's method
[10] = target: Cholinesterase (Equus caballus) (UniProt P81908); test: Inhibition of equine serum BChE at 20 uM using butyrylthiocholine iodide as substrate preincubated for 10 mins followed by substrate addition by Ellman's method

T3 sequence (P22303 whole entry): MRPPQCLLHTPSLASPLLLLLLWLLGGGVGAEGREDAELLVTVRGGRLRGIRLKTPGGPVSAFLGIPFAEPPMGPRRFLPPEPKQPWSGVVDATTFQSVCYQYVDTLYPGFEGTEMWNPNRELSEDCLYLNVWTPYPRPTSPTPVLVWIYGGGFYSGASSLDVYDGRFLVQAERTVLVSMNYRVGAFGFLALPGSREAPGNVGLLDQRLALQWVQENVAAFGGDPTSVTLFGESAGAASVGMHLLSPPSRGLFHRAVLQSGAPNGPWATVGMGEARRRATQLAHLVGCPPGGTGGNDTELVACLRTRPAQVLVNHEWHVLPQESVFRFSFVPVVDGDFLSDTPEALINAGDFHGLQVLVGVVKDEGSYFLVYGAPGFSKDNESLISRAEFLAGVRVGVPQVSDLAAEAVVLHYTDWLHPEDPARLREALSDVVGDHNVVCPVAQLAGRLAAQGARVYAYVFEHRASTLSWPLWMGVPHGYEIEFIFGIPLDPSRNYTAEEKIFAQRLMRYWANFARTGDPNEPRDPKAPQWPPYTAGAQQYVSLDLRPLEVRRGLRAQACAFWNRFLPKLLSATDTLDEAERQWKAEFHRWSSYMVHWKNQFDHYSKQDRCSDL
T1 sequence (P81908 whole entry): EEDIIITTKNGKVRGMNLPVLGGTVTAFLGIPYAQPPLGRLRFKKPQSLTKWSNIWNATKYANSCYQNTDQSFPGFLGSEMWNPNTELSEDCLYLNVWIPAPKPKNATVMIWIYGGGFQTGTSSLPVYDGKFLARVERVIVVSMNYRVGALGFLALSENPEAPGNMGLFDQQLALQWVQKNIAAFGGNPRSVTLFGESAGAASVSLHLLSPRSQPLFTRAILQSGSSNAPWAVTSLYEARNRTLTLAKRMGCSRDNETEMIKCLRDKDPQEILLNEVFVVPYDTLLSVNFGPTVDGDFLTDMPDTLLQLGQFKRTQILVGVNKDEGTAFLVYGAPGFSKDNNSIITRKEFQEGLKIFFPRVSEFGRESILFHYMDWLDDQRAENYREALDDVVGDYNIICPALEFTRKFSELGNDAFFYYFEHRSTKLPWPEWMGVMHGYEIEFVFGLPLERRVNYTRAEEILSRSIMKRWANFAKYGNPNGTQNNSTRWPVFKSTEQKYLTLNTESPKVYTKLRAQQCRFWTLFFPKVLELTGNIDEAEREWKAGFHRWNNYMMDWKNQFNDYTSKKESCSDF
Cholinesterase (Equus caballus), sequence (P81908 whole entry): as above

| Structure (SMILES) | IC50 (Cholinesterase [1]) [µM] | inhibition at 20 µM (Liver carboxylesterase [2]) [%] | IC50 (Liver carboxylesterase [3]) [µM] | IC50 (Acetylcholinesterase [4]) [µM] | Ki (Cholinesterase [5]) [µM] | alphaKi [6] [µM] | Ki (Acetylcholinesterase [7]) [µM] | alphaKi (Acetylcholinesterase [8]) [µM] | inhibition (Acetylcholinesterase [9]) | inhibition [10] |
| --- | --- | --- | --- | --- | --- | --- | --- | --- | --- | --- |
| C[n+]1c2ccccc2c(-c2cccs2)c2ccccc21 | 58.3 | 6.1 | > 20 | 40.9 | – | – | – | – | – | – |
| CN1c2ccccc2C(N2CCSCC2)c2ccccc21 | 0.84 | 5 | > 20 | 11.8 | 0.35 | 1.31 | 3.75 | – | – | – |
| CCN(CC)c1ccc(-c2c3ccccc3[n+](C)c3ccccc23)cc1 | 3.35 | – | – | 25.2 | 0.94 | 4.22 | 13.2 | 28 | – | – |
| CN1c2ccccc2C(c2cc(C(C)(C)C)c(O)c(C(C)(C)C)c2)c2ccccc21 | > 20 | 23.6 | > 20 | – | – | – | – | – | inactive | 10.4% |
| CN1c2ccccc2C(c2ccc(F)cc2)c2ccccc21 | > 20 | – | – | – | – | – | – | – | inactive | 11.1% |
| CN1c2ccccc2C(n2c3ccccc3c3ccccc32)c2ccccc21 | 13 | – | – | > 20 | – | – | – | – | 5.6% | – |
| CC(=O)Nc1ccc(-c2c3ccccc3[n+](C)c3ccccc23)cc1 | 35.1 | – | – | 54.3 | – | – | – | – | – | – |
| C[n+]1c2ccccc2c(-c2ccc(NC(=O)C(F)(F)F)cc2)c2ccccc21 | > 20 | 7.2 | > 20 | 36.5 | – | – | – | – | – | 7.7% |
| COc1ccc(-c2c3ccccc3[n+](C)c3ccccc23)cc1 | 58.5 | 7.8 | > 20 | 13.7 | – | – | – | – | – | – |
| CN1c2ccccc2C(c2cc(C(C)(C)C)cc(C(C)(C)C)c2O)c2ccccc21 | > 20 | – | – | – | – | – | – | – | inactive | 13.4% |
| C[n+]1c2ccccc2c(-c2ccc(F)cc2)c2ccccc21 | > 20 | 5.9 | > 20 | 32.3 | – | – | – | – | – | 8.2% |
| CN1c2ccccc2C(c2ccc(N)cc2)c2ccccc21 | 66.5 | – | – | – | – | – | – | – | inactive | – |
| C[n+]1c2ccccc2c(-c2c(O)ccc3ccccc23)c2ccccc21 | 50.8 | 8.9 | > 20 | > 20 | – | – | – | – | 7.3% | – |
| CN1c2ccccc2C(n2nnc3ccccc32)c2ccccc21 | 1.08 | 15.3 | > 20 | 12.4 | 0.49 | 2.13 | 6.43 | 17.9 | – | – |
| CN1c2ccccc2C(n2cnc([N+](=O)[O-])n2)c2ccccc21 | 1.17 | 10.6 | > 20 | 16.7 | – | – | – | – | – | – |
| Cc1cc(-c2c3ccccc3[n+](C)c3ccccc23)cc(C)c1O | 61.8 | – | – | 49.8 | – | – | – | – | – | – |

| Structure (SMILES) | IC50 (Cholinesterase [1]) [µM] | inhibition at 20 µM (Liver carboxylesterase [2]) [%] | IC50 (Liver carboxylesterase [3]) [µM] | IC50 (Acetylcholinesterase [4]) [µM] | Ki (Cholinesterase [5]) [µM] | alphaKi [6] [µM] | Ki (Acetylcholinesterase [7]) [µM] | alphaKi (Acetylcholinesterase [8]) [µM] | inhibition (Acetylcholinesterase [9]) | inhibition [10] |
| --- | --- | --- | --- | --- | --- | --- | --- | --- | --- | --- |
| O=[N+]([O-])c1ccc(OP(=O)(O)Oc2ccc([N+](=O)[O-])cc2)cc1 | – | – | – | – | – | – | – | – | inactive | inactive |
| Cc1ccc(C2c3ccccc3N(C)c3ccccc32)cc1 | > 20 | – | – | > 20 | – | – | – | – | 5.1% | 10.6% |
| CN1c2ccccc2C(c2ccccc2)c2ccccc21 | 62.1 | – | – | – | – | – | – | – | inactive | – |
| CC(=O)Nc1ccc(C2c3ccccc3N(C)c3ccccc32)cc1 | > 20 | 7.2 | > 20 | – | – | – | – | – | inactive | 10.8% |
| Cc1cc(-c2c3ccccc3[n+](C)c3ccccc23)cc(C)c1C | > 20 | – | – | 60.1 | – | – | – | – | – | 14.2% |
| CN1c2ccccc2C(c2cccs2)c2ccccc21 | > 20 | 11.1 | > 20 | – | – | – | – | – | inactive | 12.3% |
| CN1c2ccccc2C(c2ccc(NC(=O)C(F)(F)F)cc2)c2ccccc21 | > 20 | – | – | – | – | – | – | – | inactive | 7.1% |
| C[n+]1c2ccccc2c(N)c2ccccc21 | 4.83 | – | – | 39.5 | – | – | – | – | – | – |
| Cc1ccc(-c2c3ccccc3[n+](C)c3ccccc23)cc1 | 40.7 | 16.3 | > 20 | 41.5 | – | – | – | – | – | – |
| CN1c2ccccc2C(n2cncn2)c2ccccc21 | 0.81 | 5.4 | > 20 | 18.8 | 0.16 | 0.72 | 3.34 | – | – | – |
| C[n+]1c2ccccc2c(-c2ccc(N)cc2)c2ccccc21 | 39.1 | 18.6 | > 20 | 7.62 | 19 | 55.4 | 2.66 | 8.95 | – | – |
| CCCCNc1c2ccccc2[n+](C)c2ccccc12 | 15.7 | – | – | > 20 | – | – | – | – | 16.8% | – |
| C[n+]1c2ccccc2c(-c2ccccc2)c2ccccc21 | 51.9 | 22.6 | > 20 | 61.3 | – | – | – | – | – | – |
| C[n+]1c2ccccc2c(-c2cc(C(C)(C)C)cc(C(C)(C)C)c2O)c2ccccc21 | 2.74 | 31.2 | > 20 | > 20 | 1.46 | 4.75 | – | – | 16.7% | – |
| CN1c2ccccc2C(N2CCOCC2)c2ccccc21 | 0.46 | 16.4 | > 20 | 12.3 | 0.41 | 1.17 | 4.01 | 19.6 | – | – |
| COc1ccc(C2c3ccccc3N(C)c3ccccc32)cc1 | > 20 | – | – | > 20 | – | – | – | – | 9.3% | 11.6% |

Source: ChEMBL document CHEMBL4043268 (Bioorg Med Chem, 2017)
